Values after ≈ are worked out from the molar mass of the structure shown. Positions of bridges follow the written chain, without caps; N, C: chain ends. Non-standard residues stand in square brackets, D forms with d. Residues, ends and D or L forms follow the SMILES beside them. *: point of attachment. Phenylacetyl(4-CF3) = O=C(Cc1ccc(C(F)(F)F)cc1)*; Benzoyl(3-CF3) = O=C(c1cccc(C(F)(F)F)c1)*; X17 = Cc1cc(C(=O)*)cc(C(F)(F)F)c1; X16 = O=C(c1cc(F)c(F)c(F)c1)*; dNle = CCCC[C@@H](N)C(=O)O; Octanoyl = CCCCCCCC(=O)*; Dab = NCC[C@H](N)C(=O)O; Abu = CC[C@H](N)C(=O)O; Dap = NC[C@H](N)C(=O)O
Tests used:
[1] = tested on: Pseudomonas aeruginosa
Procedure, shortened: (§1)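 Broth microdilution MICs following CLSI standards in cation-adjusted Mueller-Hinton broth. Lipopeptides tested as TFA salts; polymyxin B sulphate served as control.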

[2] = tested on: Enterobacter cloacae
Procedure, shortened: as §1

[3] = tested on: Klebsiella pneumoniae
Procedure, shortened: as §1

[4] = tested on: Acinetobacter baumannii
Procedure, shortened: as §1

[5] = tested on: P. aeruginosa ATCC 27853; assay: In vivo efficacy in mouse blood infection model (neutropenic Swiss mice); conditions: compound, free base 4 mg/kg intravenously 2 h after inoculation, blood at 4 h
Procedure, shortened: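 Neutropenic Swiss mice (cyclophosphamide 150 mg/kg day −4, 100 mg/kg day −1, i.p.) infected i.v. with early log-phase bacteria; 4 mg/kg free base i.v. given 2 h post-inoculation. Blood CFU by cardiac puncture 4 h post-dose; Δlog10 CFU/mL treated versus saline controls.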

SMILES	MIC [1] [µg/mL]	Minimum inhibitory concentration, Pa ATCC 27853 [1] [µg/mL]	Minimum inhibitory concentration, Pa FADDI-PA022 [1] [µg/mL]	Minimum inhibitory concentration, Pa FADDI-PA025 [1] [µg/mL]	Minimum inhibitory concentration, Ec FADDI-EC001 [2] [µg/mL]	Minimum inhibitory concentration, Ec FADDI-EC003 [2] [µg/mL]	Minimum inhibitory concentration, Ec FADDI-EC006 [2] [µg/mL]	MIC [3] [µg/mL]	MIC [4] [µg/mL]	Minimum inhibitory concentration, Ab A ATCC 17978 [4] [µg/mL]	Minimum inhibitory concentration, Ab ATCC 19606 [4] [µg/mL]	Minimum inhibitory concentration, Ab FADDI-AB034 [4] [µg/mL]	Δ log (Treated-Control at 4 h) [5] [log10 CFU/mL]
CC[C@@H]1NC(=O)[C@@H](CC(C)C)NC(=O)[C@H](CCN)NC(=O)[C@@H](NC(=O)[C@H](CN)NC(=O)[C@@H](NC(=O)[C@H](CCN)NC(=O)c2cc(C)cc(C(F)(F)F)c2)[C@@H](C)O)CCNC(=O)[C@H]([C@@H](C)O)NC(=O)[C@H](CCN)NC(=O)[C@H](CCN)NC1=O [Compound 120] (X17-[Dab]T[Dap][Dab][Dab][dL][Abu][Dab][Dab]T; lactam 4-C)	1 (≈ 0.852 µM)	1 (≈ 0.852 µM)	1 (≈ 0.852 µM)	2 (≈ 1.7 µM)	0.25 (≈ 0.213 µM)	0.25 (≈ 0.213 µM)	0.25 (≈ 0.213 µM)	0.5 (≈ 0.426 µM)	1 (≈ 0.852 µM)	0.5 (≈ 0.426 µM)	1 (≈ 0.852 µM)	0.5 (≈ 0.426 µM)	−3.20
CCCC[C@H]1NC(=O)[C@H](CCN)NC(=O)[C@@H](NC(=O)[C@H](CN)NC(=O)[C@@H](NC(=O)[C@H](CCN)NC(=O)c2cccc(C(F)(F)F)c2)[C@@H](C)O)CCNC(=O)[C@H]([C@@H](C)O)NC(=O)[C@H](CCN)NC(=O)[C@H](CCN)NC(=O)[C@H](CC)NC1=O [Compound 121] ({Benzoyl(3-CF3)}-[Dab]T[Dap][Dab][Dab][dNle][Abu][Dab][Dab]T; lactam 4-C)	0.5 (≈ 0.431 µM)	0.5 (≈ 0.431 µM)	1 (≈ 0.863 µM)	2 (≈ 1.73 µM)	0.25 (≈ 0.216 µM)	0.25 (≈ 0.216 µM)	0.25 (≈ 0.216 µM)	0.25 (≈ 0.216 µM)	0.5 (≈ 0.431 µM)	0.5 (≈ 0.431 µM)	0.5 (≈ 0.431 µM)	0.5 (≈ 0.431 µM)	−2.81
C[C@@H](O)[C@@H]1NC(=O)[C@H](CCN)NC(=O)[C@H](CCN)NC(=O)[C@H]([C@@H](C)O)NC(=O)[C@@H](Cc2ccccc2)NC(=O)[C@H](CCN)NC(=O)[C@@H](NC(=O)[C@H](CN)NC(=O)[C@@H](NC(=O)[C@H](CCN)NC(=O)c2cccc(C(F)(F)F)c2)[C@@H](C)O)CCNC1=O [Compound 124] ({Benzoyl(3-CF3)}-[Dab]T[Dap][Dab][Dab][dF]T[Dab][Dab]T; lactam 4-C)	0.25 (≈ 0.207 µM)	0.25 (≈ 0.207 µM)	0.5 (≈ 0.413 µM)	2 (≈ 1.65 µM)	0.5 (≈ 0.413 µM)	<0.125	0.5 (≈ 0.413 µM)	0.25 (≈ 0.207 µM)	1 (≈ 0.827 µM)	1 (≈ 0.827 µM)	1 (≈ 0.827 µM)	0.25 (≈ 0.207 µM)	−3.36
CCCC[C@H]1NC(=O)[C@H](CCN)NC(=O)[C@@H](NC(=O)[C@H](CN)NC(=O)[C@@H](NC(=O)[C@H](CCN)NC(=O)c2cccc(C(F)(F)F)c2)[C@@H](C)O)CCNC(=O)[C@H]([C@@H](C)O)NC(=O)[C@H](CCN)NC(=O)[C@H](CCN)NC(=O)[C@H](C)NC1=O [Compound 125] ({Benzoyl(3-CF3)}-[Dab]T[Dap][Dab][Dab][dNle]A[Dab][Dab]T; lactam 4-C)	0.25 (≈ 0.218 µM)	0.25 (≈ 0.218 µM)	0.5 (≈ 0.437 µM)	2 (≈ 1.75 µM)	0.5 (≈ 0.437 µM)	0.5 (≈ 0.437 µM)	1 (≈ 0.873 µM)	0.25 (≈ 0.218 µM)	1 (≈ 0.873 µM)	1 (≈ 0.873 µM)	1 (≈ 0.873 µM)	0.5 (≈ 0.437 µM)	−3.66
CC[C@@H]1NC(=O)[C@@H](CC(C)C)NC(=O)[C@H](CCN)NC(=O)[C@@H](NC(=O)[C@H](CN)NC(=O)[C@@H](NC(=O)[C@H](CCN)NC(=O)Cc2ccc(C(F)(F)F)cc2)[C@@H](C)O)CCNC(=O)[C@H]([C@@H](C)O)NC(=O)[C@H](CCN)NC(=O)[C@H](CCN)NC1=O [Compound 127] ({Phenylacetyl(4-CF3)}-[Dab]T[Dap][Dab][Dab][dL][Abu][Dab][Dab]T; lactam 4-C)	0.5 (≈ 0.426 µM)	0.5 (≈ 0.426 µM)	0.5 (≈ 0.426 µM)	16 (≈ 13.6 µM)	<0.125	0.25 (≈ 0.213 µM)	0.5 (≈ 0.426 µM)	0.5 (≈ 0.426 µM)	4 (≈ 3.41 µM)	1 (≈ 0.852 µM)	4 (≈ 3.41 µM)	0.5 (≈ 0.426 µM)	−3.51
CCCCCCCC(=O)N[C@@H](CCN)C(=O)N[C@H](C(=O)N[C@@H](CN)C(=O)N[C@H]1CCNC(=O)[C@H]([C@@H](C)O)NC(=O)[C@H](CCN)NC(=O)[C@H](CCN)NC(=O)[C@H](CC)NC(=O)[C@@H](Cc2ccccc2)NC(=O)[C@H](CCN)NC1=O)[C@@H](C)O [Compound 130] (Octanoyl-[Dab]T[Dap][Dab][Dab][dF][Abu][Dab][Dab]T; lactam 4-C)	0.5 (≈ 0.436 µM)	0.5 (≈ 0.436 µM)	2 (≈ 1.74 µM)	2 (≈ 1.74 µM)	0.25 (≈ 0.218 µM)	0.25 (≈ 0.218 µM)	1 (≈ 0.872 µM)	0.5 (≈ 0.436 µM)	0.25 (≈ 0.218 µM)	0.25 (≈ 0.218 µM)	0.25 (≈ 0.218 µM)	0.25 (≈ 0.218 µM)	−3.66
CC[C@@H]1NC(=O)[C@@H](CC(C)C)NC(=O)[C@H](CCN)NC(=O)[C@@H](NC(=O)[C@H](CN)NC(=O)[C@@H](NC(=O)[C@H](CCN)NC(=O)c2cc(F)c(F)c(F)c2)[C@@H](C)O)CCNC(=O)[C@H]([C@@H](C)O)NC(=O)[C@H](CCN)NC(=O)[C@H](CCN)NC1=O [Compound 133] (X16-[Dab]T[Dap][Dab][Dab][dL][Abu][Dab][Dab]T; lactam 4-C; N-terminus assumed)	0.5 (≈ 0.437 µM)	0.5 (≈ 0.437 µM)	0.5 (≈ 0.437 µM)	2 (≈ 1.75 µM)	0.5 (≈ 0.437 µM)	0.25 (≈ 0.218 µM)	0.25 (≈ 0.218 µM)	0.25 (≈ 0.218 µM)	2 (≈ 1.75 µM)	0.5 (≈ 0.437 µM)	2 (≈ 1.75 µM)	0.25 (≈ 0.218 µM)	−3.23
